Measurements as given in patent US4605614A, “Method for measuring plasmin” (Nitto Boseki Co., Ltd., priority 1981, dated 1986).

What was measured:
[1] = target: Kallikrein (KL) (Sus scrofa, UniProt P00752); type: biochemical, Pig; conditions: TABLE 4, CHA substrates; So = 0.54; pH 7.9; 37° C., 10 minutes; 1.0 BAEE-U/ml
Method: (§1) The specificities of the novelly synthesized substrates were tested by reacting them with various enzymes respectively.
(§2) (1) Substrate solution concentration: 35 mmole/liter H2 O
(§3) (2) Buffer: Tris-hydrochloric acid buffer 50 mmole/l, NaCl 150 mmole/l (0.875%) was employed, and the pH for reaction was as follows depending on the enzyme.
(§4) 2,6-Xylenol 7.0 mmole+NaIO4 1.5 mmole/0.2N KOH
(§5) 0.5 ml of the buffer solution and 0.05 ml of the enzyme reagent were taken into a silicon-treated hard glass test tube or a plastic test tube, and preheated in a constant temperature bath at 37° C. for 5 minutes. Thereafter, 0.1 ml of the substrate solution was added to effect the enzymatic reaction at 37° C. for 10 minutes. Exactly after 10 minutes, 2.5 ml of the reaction terminating solution or the terminating and color developing reagent solution was added to terminate the enzymatic reaction, and after allowing to stand at 25° C. for 10 minutes, the absorbance at 405 nm or 645 nm was measured, in which [drawing 49]

[2] = target: Factor-Xa (FXa) (Bos taurus, UniProt P00743); type: biochemical, Cow; conditions: TABLE 4, CHA substrates; So = 0.54; pH 8.4; 37° C., 10 minutes; 0.4 U/ml
Method: as §1, §2, §3, §4, §5

[3] = target: Urokinase (UK) (Homo sapiens, UniProt P00749); type: biochemical; conditions: TABLE 4, CHA substrates; So = 0.54; pH 8.2; 37° C., 10 minutes; 1000 IU/ml
Method: as §1, §2, §3, §4, §5

[4] = target: Plasmin (PL) (Sus scrofa, UniProt P06867); type: biochemical, Pig; conditions: TABLE 4, CHA substrates; So = 0.54; pH 7.4; 37° C., 10 minutes; 0.32 CU/ml
Plasmin (PL), sequence (P06867 97-809): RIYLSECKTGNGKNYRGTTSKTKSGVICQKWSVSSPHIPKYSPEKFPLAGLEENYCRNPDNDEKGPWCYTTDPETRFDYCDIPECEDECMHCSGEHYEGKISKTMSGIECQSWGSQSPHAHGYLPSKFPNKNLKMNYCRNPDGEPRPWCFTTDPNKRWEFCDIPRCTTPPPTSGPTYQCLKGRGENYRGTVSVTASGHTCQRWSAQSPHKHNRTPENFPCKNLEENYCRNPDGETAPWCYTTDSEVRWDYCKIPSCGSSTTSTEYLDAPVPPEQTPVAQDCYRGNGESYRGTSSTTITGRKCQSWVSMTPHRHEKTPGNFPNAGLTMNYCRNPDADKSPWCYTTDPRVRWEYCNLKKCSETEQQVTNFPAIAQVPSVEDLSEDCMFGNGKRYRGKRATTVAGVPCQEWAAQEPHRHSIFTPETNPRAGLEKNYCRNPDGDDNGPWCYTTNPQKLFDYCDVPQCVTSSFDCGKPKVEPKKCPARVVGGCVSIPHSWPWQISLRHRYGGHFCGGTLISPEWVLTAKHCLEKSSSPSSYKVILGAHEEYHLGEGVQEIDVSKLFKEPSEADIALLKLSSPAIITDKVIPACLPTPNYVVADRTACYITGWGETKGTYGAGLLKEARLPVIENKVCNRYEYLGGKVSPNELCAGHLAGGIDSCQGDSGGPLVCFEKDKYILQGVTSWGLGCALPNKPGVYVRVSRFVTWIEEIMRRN
Method: as §2, §3
Plasmin Pig Sigma (U.S.A.)
as §5

[5] = target: plasmin (pig) (Sus scrofa, UniProt P06867); experiment: Km, Vmax and Vmax/Km of substrates for plasmin (pig); type: biochemical, Porcine (pig); conditions: for Vmax (× 10^-7): TABLE 2, CHA substrates, plasmin (pig), 2,6-xylenol 615 nm; for Relative ratio: TABLE 2, V/Km of each sample divided by that of S2251 (so in the source)
plasmin (pig), sequence (P06867 97-809): as above
From the text: The substrates produced by the above examples were used in the measurement of plasmin as follows: The principle of this measurement comprises quantitatively analyzing the decomposition product p-nitroaniline or 3-carboxy-4-hydroxyaniline produced by the enzymatic hydrolysis, by measuring the absorbance (O.D.) directly at 405 nm in the case of p-nitroaniline and, in the case of the 3-carboxy-4-hydroxyaniline at 615 nm after condensing it with 2,6-xylenol in the presence of an oxidant to develop a color.
For the measurements of these constants, the following method is adopted:
The enzyme and the substrate are mixed in a buffer solution and subjected to the hydrolysis for 30 seconds. The concentration of the substrate [S] is changed and the enzyme concentration is maintained constant. By measuring the absorbance (O.D.), the initial velocity of the hydrolysis can be determined. Where 1/V is plotted as a function of 1/[S], there is obtained a Lineweaver and Burk's linea from which graph the Vmax and Km can be determined.

[6] = target: Thrombin (TH) (Bos taurus, UniProt P00735); type: biochemical, Cow; conditions: TABLE 4, CHA substrates; So = 0.54; pH 8.4; 37° C., 10 minutes; 1.0 NIH/ml
Thrombin (TH), sequence (P00735 44-625): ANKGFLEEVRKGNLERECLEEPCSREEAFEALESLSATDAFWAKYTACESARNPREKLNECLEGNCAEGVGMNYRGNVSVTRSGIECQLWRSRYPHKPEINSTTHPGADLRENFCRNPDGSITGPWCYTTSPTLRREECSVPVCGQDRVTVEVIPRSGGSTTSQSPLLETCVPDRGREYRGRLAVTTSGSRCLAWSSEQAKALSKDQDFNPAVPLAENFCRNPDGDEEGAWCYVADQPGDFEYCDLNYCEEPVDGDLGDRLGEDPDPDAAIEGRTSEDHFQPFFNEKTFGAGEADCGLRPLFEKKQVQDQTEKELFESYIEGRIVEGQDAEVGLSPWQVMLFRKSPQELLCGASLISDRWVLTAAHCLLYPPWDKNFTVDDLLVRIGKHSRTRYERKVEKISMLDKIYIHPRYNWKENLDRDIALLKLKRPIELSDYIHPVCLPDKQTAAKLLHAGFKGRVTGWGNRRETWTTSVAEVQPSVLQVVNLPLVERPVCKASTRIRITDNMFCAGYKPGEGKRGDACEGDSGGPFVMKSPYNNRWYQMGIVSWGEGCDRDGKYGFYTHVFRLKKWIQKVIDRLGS
Method: as §1, §2, §3, §4, §5

Factor-Xa (FXa), sequence (P00743 41-180): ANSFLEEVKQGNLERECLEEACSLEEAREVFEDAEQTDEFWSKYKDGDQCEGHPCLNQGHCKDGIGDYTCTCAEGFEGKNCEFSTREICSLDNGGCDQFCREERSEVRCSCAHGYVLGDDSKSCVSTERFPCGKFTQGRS
Factor-Xa (FXa), sequence (P00743 234-492): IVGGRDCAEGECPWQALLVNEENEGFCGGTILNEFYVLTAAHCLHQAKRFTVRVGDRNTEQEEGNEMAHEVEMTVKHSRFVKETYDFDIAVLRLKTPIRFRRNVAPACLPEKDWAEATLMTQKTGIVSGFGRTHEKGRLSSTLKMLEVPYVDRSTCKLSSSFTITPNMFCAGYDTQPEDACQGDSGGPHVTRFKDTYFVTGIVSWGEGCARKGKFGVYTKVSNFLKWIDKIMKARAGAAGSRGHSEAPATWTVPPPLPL
Kallikrein (KL), sequence (P00752 8-246): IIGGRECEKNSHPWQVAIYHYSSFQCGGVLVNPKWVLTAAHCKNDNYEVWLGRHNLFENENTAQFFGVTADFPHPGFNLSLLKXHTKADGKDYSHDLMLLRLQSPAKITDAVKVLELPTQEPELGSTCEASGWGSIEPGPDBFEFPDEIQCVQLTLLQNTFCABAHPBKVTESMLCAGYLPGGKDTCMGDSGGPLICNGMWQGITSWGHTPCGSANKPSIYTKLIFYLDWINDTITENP

Selectivity KL, absorbance (O.D.) at 645 nm [1] [O.D.]	Selectivity FXa, absorbance (O.D.) at 645 nm [2] [O.D.]	Selectivity UK, absorbance (O.D.) at 645 nm [3] [O.D.]	Selectivity PL, absorbance (O.D.) at 645 nm [4] [O.D.]	Vmax (× 10^-7) [5]	Relative ratio [5]	Selectivity TH, absorbance (O.D.) at 645 nm [6] [O.D.]	SMILES
0.002	0.002	0	0.013	3.556 × 10^-7	1.000	0	CC(C)C[C@H](NC(=O)[C@H](N)C(C)C)C(=O)N[C@@H](CCCCN)C(=O)Nc1ccc(O)c(C(=O)O)c1 [NPC-1, HD-ValLeuLysCHA.2HBr]
0.006	0.004	0.002	0.090	8.266 × 10^-7	11.811	0.002	CC(C)[C@@H](N)C(=O)N[C@@H](Cc1ccccc1)C(=O)N[C@@H](CCCCN)C(=O)Nc1ccc(O)c(C(=O)O)c1 [NPC-2, HD-ValPheLysCHA.2HCl]
0.004	0.002	0	0.096	7.506 × 10^-7	30.432	0	NCCCC[C@@H](N)C(=O)N[C@@H](Cc1ccccc1)C(=O)N[C@@H](CCCCN)C(=O)Nc1ccc(O)c(C(=O)O)c1 [NPC-3]
0.006	0.002	0	0.144	10.940 × 10^-7	39.351	0.001	CC(=O)NCCCC[C@@H](N)C(=O)N[C@@H](Cc1ccccc1)C(=O)N[C@@H](CCCCN)C(=O)Nc1ccc(O)c(C(=O)O)c1 [NPC-4, HD-Lys(AC)PheLysCHA.2HCl]
0.001	0.002	0	0.051	3.159 × 10^-7	9.739	0	Cc1ccc(S(=O)(=O)NCCCC[C@H](N)C(=O)N[C@@H](Cc2ccccc2)C(=O)N[C@@H](CCCCN)C(=O)Nc2ccc(O)c(C(=O)O)c2)cc1 [NPC-5, HL-Lys(Tos)PheLysCHA.2HCl]
0.007	0.001	0	0.147	11.670 × 10^-7	137.973	0	Cc1ccc(C(=O)NCCCC[C@@H](N)C(=O)N[C@@H](Cc2ccccc2)C(=O)N[C@@H](CCCCN)C(=O)Nc2ccc(O)c(C(=O)O)c2)cc1 [NPC-6, HD-Lys(Toc)PheLysCHA.2HCl]
0.007	0.001	0	0.420	29.417 × 10^-7	128.468	0	Cc1ccc(S(=O)(=O)NCCCC[C@@H](N)C(=O)N[C@@H](Cc2ccccc2)C(=O)N[C@@H](CCCCN)C(=O)Nc2ccc(O)c(C(=O)O)c2)cc1 [NPC-7, 2HCl.H-D-Lys(ToS)-L-Phe-L-Lys-CHA]
0.011	0.002	0.002	0.498	30.814 × 10^-7	154.748	0	NCCCC[C@H](NC(=O)[C@H](Cc1ccccc1)NC(=O)[C@H](N)CCCCNS(=O)(=O)c1ccc2ccccc2c1)C(=O)Nc1ccc(O)c(C(=O)O)c1 [NPC-8, HD-Lys(NaS)PheLysCHA.2HCl]
0.027	0.001	0	0.120	13.827 × 10^-7	38.270	0	NCCCC[C@H](NC(=O)[C@H](Cc1ccccc1)NC(=O)[C@H](N)CCCCNC(=O)c1ccc2ccccc2c1)C(=O)Nc1ccc(O)c(C(=O)O)c1 [NPC-9, HD-Lys(NaC)PheLysCHA.2HCl]
0.010	0.002	0.001	0.344	28.445 × 10^-7	94.369	0	Cc1cc(C)c(S(=O)(=O)NCCCC[C@@H](N)C(=O)N[C@@H](Cc2ccccc2)C(=O)N[C@@H](CCCCN)C(=O)Nc2ccc(O)c(C(=O)O)c2)c(C)c1 [NPC-10, HD-Lys(Mst)PheLysCHA.2HCl]
0.012	0.003	0.003	0.277	17.018 × 10^-7	99.532	0.001	Cc1ccc(S(=O)(=O)Oc2ccc(C[C@@H](N)C(=O)N[C@@H](Cc3ccccc3)C(=O)N[C@@H](CCCCN)C(=O)Nc3ccc(O)c(C(=O)O)c3)cc2)cc1 [NPC-11, HD-Tyr(Tos)PheLysCHA.2HCl]
0.007	0.002	0.001	0.051	25.679 × 10^-7	23.135	0.001	Cc1ccc(S(=O)(=O)NCCCC[C@@H](N)C(=O)N[C@@H](CC(C)C)C(=O)N[C@@H](CCCCN)C(=O)Nc2ccc(O)c(C(=O)O)c2)cc1 [NPC-12, HD-Lys(Tos)LeuLysCHA.2HBr]
0.004	0.001	0.001	0.041	17.991 × 10^-7	11.225	0.002	Cc1ccc(S(=O)(=O)Oc2ccc(C[C@@H](N)C(=O)N[C@@H](CC(C)C)C(=O)N[C@@H](CCCCN)C(=O)Nc3ccc(O)c(C(=O)O)c3)cc2)cc1 [NPC-13, HD-Tyr(Tos)LeuLysCHA.2HCl]
0.010	0.002	0	0.480	37.927 × 10^-7	64.180	0	NCCCC[C@H](NC(=O)[C@H](Cc1ccccc1)NC(=O)[C@H](N)CCCCNS(=O)(=O)c1ccccc1)C(=O)Nc1ccc(O)c(C(=O)O)c1 [NPC-15]
0.002	0	0	0.192	15.803 × 10^-7	23.874	0	NCCCC[C@H](NC(=O)[C@H](Cc1ccccc1)NC(=O)[C@H](N)CCCCNS(=O)(=O)c1cccc2ccccc12)C(=O)Nc1ccc(O)c(C(=O)O)c1 [NPC-17]
0.019	0.002	0.001	0.392	35.252 × 10^-7	58.558	0	Cc1ccc(S(=O)(=O)NCCC[C@@H](N)C(=O)N[C@@H](Cc2ccccc2)C(=O)N[C@@H](CCCCN)C(=O)Nc2ccc(O)c(C(=O)O)c2)cc1 [NPC-18]

SMILES	Selectivity KL, absorbance (O.D.) at 645 nm [1] [O.D.]	Selectivity FXa, absorbance (O.D.) at 645 nm [2] [O.D.]	Selectivity UK, absorbance (O.D.) at 645 nm [3] [O.D.]	Selectivity PL, absorbance (O.D.) at 645 nm [4] [O.D.]	Vmax (× 10^-7) [5]	Relative ratio [5]	Selectivity TH, absorbance (O.D.) at 645 nm [6] [O.D.]
NCCCC[C@H](NC(=O)[C@H](Cc1ccccc1)NC(=O)[C@H](N)CCCCNC(=O)c1ccccc1)C(=O)Nc1ccc(O)c(C(=O)O)c1 [NPC-14]	0.016	0.002	0.001	0.417	33.794 × 10^-7	91.036	0
NCCCC[C@H](NC(=O)[C@H](Cc1ccccc1)NC(=O)[C@H](N)CCCCNC(=O)Cc1ccccc1)C(=O)Nc1ccc(O)c(C(=O)O)c1 [NPC-16]	0.012	0.002	0.001	0.325	26.986 × 10^-7	68.162	0
